Measurements: patent US7846964B2, “Thiophene derivatives as spingosine-1-phosphate-1 receptor agonists” (Actelion Pharmaceuticals Ltd., priority 2005, dated 2010)

biological target: recombinant human S1P1 receptor (Homo sapiens, UniProt P21453); assay: GTPγS assay to determine EC50 values; format: biochemical; conditions: 35S-GTPγS binding, membrane preparations of CHO cells expressing recombinant human S1P1 receptor
Experimental: The pH is 7.4. Test compounds are dissolved and diluted in 100% DMSO and pre-incubated at room temperature for 30 min in 150 μl of the above assay buffer, in the absence of ^35S-GTPγS. After addition of 50 μl of ^35S-GTPγS, the assay is incubated for 1 h at room temperature. […] Membrane-bound ^35S-GTPγS is measured with a TopCount from Packard Biosciences.
Specific binding is determined by subtracting non-specific binding from maximal binding. Maximal binding is the amount of cpm bound to the Multiscreen plate in the presence of 10 μM of S1P. Non-specific binding is the amount of binding in the absence of an agonist in the assay.
The EC50 values were determined according to the method described above.

Sequence of recombinant human S1P1 receptor (P21453 whole entry): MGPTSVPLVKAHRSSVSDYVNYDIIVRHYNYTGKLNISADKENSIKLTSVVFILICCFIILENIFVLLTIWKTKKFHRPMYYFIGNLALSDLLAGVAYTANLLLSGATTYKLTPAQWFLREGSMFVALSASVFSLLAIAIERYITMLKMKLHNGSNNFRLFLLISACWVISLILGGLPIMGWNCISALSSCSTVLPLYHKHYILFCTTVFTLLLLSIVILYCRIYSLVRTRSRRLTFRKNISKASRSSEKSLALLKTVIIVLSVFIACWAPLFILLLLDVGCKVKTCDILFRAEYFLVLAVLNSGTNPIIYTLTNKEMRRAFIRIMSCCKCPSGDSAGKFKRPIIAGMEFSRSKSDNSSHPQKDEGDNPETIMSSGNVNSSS

Row | EC50 | SMILES
1 | 58 nM | Cc1cc(CCC(=O)c2sc(C)c3c2C[C@@H]2[C@H]3C2(C)C)ccc1OCCN(C)C [Example 37]
2 | 2.3 nM | COCC(O)COc1c(C)cc(CCC(=O)c2sc(C)c3c2C[C@@H]2[C@H]3C2(C)C)cc1C (stereo partly drawn) [Example 233, 3-[4-(2-Hydroxy-3-methoxy-propoxy)-3,5-dimethyl-phenyl]-1-((1aS,5aR)-1,1,2-trimethyl-1,1a,5,5a-tetrahydro-3-thia-cyclopropa[a]pentalen-4-yl)-propan-1-one]
3 | 1.4 nM | Cc1sc(C(=O)CCc2ccc(OCC(O)CNCCC(=O)O)c(Cl)c2)c2c1C1C(C2)C1(C)C (stereo not drawn) [Example 60]
4 | 2 nM | Cc1cc(CCC(=O)c2sc(C)c3c2CC2C3C2(C)C)ccc1OCC(O)CNCCC(=O)O (stereo not drawn) [Example 48]
5 | 2.9 nM | Cc1cc(CCC(=O)c2sc(C)c3c2C[C@@H]2[C@H]3C2(C)C)cc(C)c1CCC(=O)NC(CO)CO [Example 237, 3-{2,6-Dimethyl-4-[3-oxo-3-((1aS,5aR)-1,1,2-trimethyl-1,1a,5,5a-tetrahydro-3-thia-cyclopropa [a]pentalen-4-yl)-propyl]-phenyl}-N-(2-hydroxy-1-hydroxymethyl-ethyl)-propionamide]
6 | 1.1 nM | CCc1cc(CCC(=O)c2sc(C)c3c2CC2C3C2(C)C)cc(C)c1OCC(O)CNC(=O)CO (stereo not drawn) [Example 244]
7 | 1.1 nM | Cc1cc(CCC(=O)c2sc(C)c3c2C[C@@H]2[C@H]3C2(C)C)cc(C)c1OCC(O)CN (stereo partly drawn) [Example 99, 3-[4-(3-amino-2-hydroxy-propoxy)-3,5-dimethyl-phenyl]-1-((1aS,5aR)-1,1,2-trimethyl-1,1a,5,5a-tetrahydro-3-thia-cyclopropa[a]pentalen-4-yl)-propan-1-one]
8 | 2 nM | COc1cc(CCC(=O)c2sc(C)c3c2CC2C3C2(C)C)cc(Cl)c1OCCN1CCC(C(=O)O)C1 (stereo not drawn) [Example 149]
9 | 12 nM | Cc1sc(C(=O)CCc2ccc(CC(O)CO)cc2)c2c1[C@H]1[C@@H](C2)C1(C)C (stereo partly drawn) [Example 1, 3-[4-((2S/R)-2,3-dihydroxy-propyl)-phenyl]-1-((1aS,5aR)-1,1,2-trimethyl-1,1a,5,5a-tetrahydro-3-thia-cyclopropa[a]pentalen-4-yl)-propan-1-one]
10 | 3 nM | Cc1sc(C(=O)CCc2ccc(CCCN)cc2)c2c1[C@H]1[C@@H](C2)C1(C)C [Example 2]
11 | 6 nM | Cc1sc(C(=O)CCc2ccc(C(=O)NCCN)cc2)c2c1[C@H]1[C@@H](C2)C1(C)C [Example 31]
12 | 2.7 nM | Cc1cc(CCC(=O)c2sc(C)c3c2C[C@@H]2[C@H]3C2(C)C)cc(C)c1OCC(O)CNC(=O)CN (stereo partly drawn) [Example 234, 2-amino-N-(3-{2,6-dimethyl-4-[3-oxo-3-((1aS,5aR)-1,1,2-trimethyl-1,1a,5,5a-tetrahydro-3-thia-cyclopropa[a]pentalen-4-yl)-propyl]-phenoxy}-2-hydroxy-propyl)-acetamide]
13 | 13 nM | Cc1sc(C(=O)CCc2ccc(CCC(N)=O)cc2)c2c1[C@H]1[C@@H](C2)C1(C)C [Example 13]
14 | 28 nM | COc1cc(CCC(=O)c2sc(C)c3c2CC2C3C2(C)C)cc(Cl)c1OCC(O)CN1CCNCC1 (stereo not drawn) [Example 175]
15 | 0.8 nM | Cc1cc(CCC(=O)c2sc(C)c3c2C[C@@H]2[C@H]3C2(C)C)cc(C)c1CC(O)CO (stereo partly drawn) [Example 239, 3-[4-(2,3-dihydroxy-propyl)-3,5-dimethyl-phenyl]-1-((1aS,5aR)-1,1,2-trimethyl-1,1a,5,5a-tetrahydro-3-thia-cyclopropa[a]pentalen-4-yl)-propan-1-one]
